In patent US20250295639A1, “METHODS FOR TREATING HEART DISEASES” (Cytokinetics, Incorporated, priority 2024, published 2025):
“And” between values parts separate entries of the source, which are not always exact repeats. Identical values can stand only once.

Tests used:
[1] = tested on: patients with symptomatic obstructive HCM (oHCM); assay: Phase 2 dose finding clinical trial of aficamten in symptomatic oHCM (10 weeks, Cohort 1 and Cohort 2); type: in vivo, human
Excerpt: Overall, the incidence of adverse events was similar between treatment arms. […] No new cases of atrial fibrillation were reported by the investigators. In this dose-range finding trial, one patient experienced a transient decrease in left ventricular ejection fraction (LVEF) that required dose adjustment but not dose interruption. […] A multi-center, randomized, placebo-controlled, double-blind, dose finding phase 2 clinical trial of aficamten in patients with symptomatic obstructive HCM (oHCM) was conducted and described as Example 2 in WO 2024/031016 and in U.S. Patent Publication US-2024-0115554-A1, the disclosures of which are incorporated by reference herein.

[2] = tested on: patients with symptomatic oHCM; assay: SEQUOIA-HCM phase 3 trial: echocardiography (LVOT gradients, cardiac structure and function); type: in vivo, human; settings: for LA Volume Index / LV Ejection Fraction / LV Mass Index / LV Maximal Wall Thickness: Non-CMR Cohort N = 225 (Aficamten N = 117)
Excerpt: The following example describes a phase 3, multi-center, randomized, double-blind, placebo-controlled trial to evaluate the efficacy and safety of aficamten in adults with symptomatic hypertrophic cardiomyopathy and left ventricular outflow tract obstruction. This trial evaluated the effects of treatment with aficamten over a 24-week period on cardiopulmonary exercise capacity and health status in patients with symptomatic oHCM. This trial was intended to establish the efficacy and safety of aficamten with respect to improvements in exercise capacity and patient symptoms, as well as reduction in left ventricular outflow tract gradient (LVOT-G) in patients with oHCM.
This was a Phase 3 randomized, placebo-controlled, double-blind, multi-center trial in patients with symptomatic oHCM. Approximately 270 eligible patients were to be randomized in a 1:1 ratio to receive aficamten or placebo. Doses of 5, 10, 15, or 20 mg or matching placebo were administered in an escalating manner using echocardiography to guide dose titration. Randomization was stratified by use of beta blockers and CPET exercise modality.
The trial comprised three periods. The screening period was up to 6 weeks in duration. The double-blind placebo-controlled treatment period lasted 24 weeks. Following the final dose of aficamten, there was a 4-week safety follow-up period. Aficamten was administered orally once daily. During the initial six weeks of the treatment period, aficamten doses were individually titrated at Weeks 2, 4, and 6 using echocardiography. […] An echocardiogram was performed at each subsequent visit during the trial and the dose down-titrated if necessary. The primary endpoint of pVO2 was measured by CPET at screening and at end of treatment (Week 24). If applicable, patients continued taking background HCM medications consistent with regional clinical practice guidelines during the trial.
Echocardiography. Echocardiography was done during screening and prior to dosing on Day 1. Echocardiography was also performed 2 hours after dosing in the clinic on Weeks 2, 4, 6, 8, 12, 16, 20, 24, and 28.
Certified sonographers performed echocardiography using standard high-quality, high-fidelity machines. Whenever possible, the same sonographer performed all studies for a single patient. Echocardiograms were performed after the patient had been resting in a supine position for at least 10 minutes and in accordance with the echocardiography manual. Instructions for the performance of the Valsalva maneuver and imaging the LVOT-G were also included in the echocardiography manual.
Echocardiographic parameters measured at least included the left ventricular parameters (resting left ventricular outflow tract pressure gradient (LVOT-G), post-Valsalva LVOT-G, LVEF, LVFS, global longitudinal strain (GLS), left ventricular end diastolic diameter (LVEDD), left ventricular end diastolic volume (LVEDV), left ventricular end systolic diameter (LVESD), left ventricular end systolic volume (LVESV), left ventricular cardiac output (LVCO), LV Stroke Volume, LVOT velocity time integral (VTI), interventricular septum thickness (IVST), isovolumic contraction time (IVCT), IVRT, E/E, ratio (septal and lateral), and left atrial volume (LAV)) in addition to right heart function metrics detailed in the echocardiography protocol.
All echocardiograms (including unscheduled) were sent to the core laboratory for interpretation. On-site interpretation of LVEF and LVOT-G were used for dose escalation and reduction decisions via IWRS. The core laboratory quantification of the echocardiograms was used for all statistical analyses.
Baseline values are presented as mean±SD. Placebo corrected differences are presented as mean±95% CI and adjusted for treatment and stratification by beta-blockers and exercise mode (bicycle vs treadmill). […]

[3] = Echo Measurements, Non-CMR Cohort N = 225, vs placebo
[4] = Treatment (Week 24), listed as Aficamten

Compound: CCc1nc(-c2ccc3c(c2)CC[C@H]3NC(=O)c2cnn(C)c2)no1 [aficamten, (R)—N-(5-(5-ethyl-1,2,4-oxadiazol-3-yl)-2,3-dihydro-1H-inden-1-yl)-1-methyl-1H-pyrazole-4-carboxamide]
- tolerability ([1]; 10 weeks treatment): well tolerated
- patients achieving target goal of treatment (resting gradient <30 mmHg and post-Valsalva gradient <50 mmHg) ([1]; Cohort 1, Week 10): 78.6%
- patients achieving target goal of treatment (resting gradient <30 mmHg and post-Valsalva gradient <50 mmHg) ([1]; Cohort 2, Week 10): 92.9%
- LVEF after the end of treatment (reversibility) ([1]; both cohorts): returned towards baseline within two weeks
- dose dependence of observed reductions in LVOT-G ([1]; human, in vivo): dose dependent
- new cases of atrial fibrillation ([1]; human, in vivo): No new cases
- serious adverse events attributed to aficamten ([1]; human, in vivo): No serious adverse events
- time of onset of reductions in LVOT-G after initiating treatment ([1]; human, in vivo): within two weeks
- patients of the SAM-resolution group reverting to baseline mitral valve SAM after washout ([2]; 50/61): 82%
- patients with complete resolution of mitral valve SAM ([2]; 61/117, 24 weeks treatment): 52%
- LA Volume Index ([2]; Echo Measurements, Baseline): 40 ± 13 mL/m^2
- LV Ejection Fraction ([2]; Echo Measurements, Baseline): 74.8 ± 5.6%
- LV Mass Index ([2]; Echo Measurements, Baseline): 131 ± 33 g/m^2
- LV Maximal Wall Thickness ([2]; Echo Measurements, Baseline): 20.7 ± 3.0 mm
- LA Volume Index ([2]; Echo Measurements, Week 24): 37 ± 11 mL/m^2
- LV Ejection Fraction ([2]; Echo Measurements, Week 24): 67.8 ± 7.4%
- LV Mass Index ([2]; Echo Measurements, Week 24): 126 ± 33 g/m^2
- LV Maximal Wall Thickness ([2]; Echo Measurements, Week 24): 19.2 ± 3.2 mm
- LA Volume Index, Treatment Effect [2, 3]: −5 mL/m^2
- LV Ejection Fraction, Treatment Effect [2, 3]: −5.3%
- LV Mass Index, Treatment Effect [2, 3]: −13 g/m^2
- LV Maximal Wall Thickness, Treatment Effect [2, 3]: −1.2 mm
- Inferolateral wall: placebo-corrected treatment difference (95% CI) ([2]; Treatment (Week 24)): −0.8 (−1.3, −0.3) mm
- Interventricular septal wall: placebo-corrected treatment difference (95% CI) ([2]; Treatment (Week 24)): −1.0 (−1.6, −0.3) mm
- LA volume index: placebo-corrected treatment difference (95% CI) ([2]; Treatment (Week 24)): −3.8 ml/m2
- LA width: placebo-corrected treatment difference (95% CI) ([2]; Treatment (Week 24)): −2.7 (−3.8, −1.7) mm
- LV Fractional Shortening: placebo-corrected treatment difference (95% CI) ([2]; Treatment (Week 24)): −4 (−7, −2) %
- LV end diastolic dimension: placebo-corrected treatment difference (95% CI) ([2]; Treatment (Week 24)): −0.3 (−1.1, 0.5) mm
- LV end diastolic volume index: placebo-corrected treatment difference (95% CI) ([2]; Treatment (Week 24)): −0.2 (−1.5, 1.2) ml/m2
- LV end systolic dimension: placebo-corrected treatment difference (95% CI) ([2]; Treatment (Week 24)): +1.6 (0.7, 2.4) mm
- LV end systolic volume index: placebo-corrected treatment difference (95% CI) ([2]; Treatment (Week 24)): +1.7 ml/m2
- LV mass index: placebo-corrected treatment difference (95% CI) ([2]; Treatment (Week 24)): −12.2 (−18.0, −6.5) g/m2
- LVOT Gradient, Valsalva: placebo-corrected treatment difference (95% CI) ([2]; Treatment (Week 24)): −50 mmHg
- LVOT Gradient, rest: placebo-corrected treatment difference (95% CI) ([2]; Treatment (Week 24)): −40 mmHg
- Lateral E/e′: placebo-corrected treatment difference (95% CI) ([2]; Treatment (Week 24)): −3.9
- Lateral e′ velocity: placebo-corrected treatment difference (95% CI) ([2]; Treatment (Week 24)): +1.2 cm/s
- Max wall thickness: placebo-corrected treatment difference (95% CI) ([2]; Treatment (Week 24)): −1.2 (−1.8, −0.6) mm
- Peak A wave velocity: placebo-corrected treatment difference (95% CI) ([2]; Treatment (Week 24)): −2.4 (−6.3, 1.5) cm/s
- Peak E wave velocity: placebo-corrected treatment difference (95% CI) ([2]; Treatment (Week 24)): −7.5 (−11.7, −3.2) cm/s
- RV s′ velocity: placebo-corrected treatment difference (95% CI) ([2]; Treatment (Week 24)): −1.4(−2.0, −0.9) cm/s
- Septal E/e′: placebo-corrected treatment difference (95% CI) ([2]; Treatment (Week 24)): −3.6
- Septal e′ velocity: placebo-corrected treatment difference (95% CI) ([2]; Treatment (Week 24)): +0.5 cm/s
- TAPSE: placebo-corrected treatment difference (95% CI) ([2]; Treatment (Week 24)): −2.1 (−3.2,−1.1) mm
- LA volume index: placebo-corrected treatment difference (95% CI) [2, 4]: −3.8 (−5.5, −2.2) ml/m2
- LV Ejection Fraction: placebo-corrected treatment difference (95% CI) [2, 4]: −4.8% and −5 (−6, −3) %
- LV end systolic volume index: placebo-corrected treatment difference (95% CI) [2, 4]: +1.7 (1.0, 2.4) ml/m2
- LV global circumferential strain (absolute): placebo-corrected treatment difference (95% CI) [2, 4]: −3.7% and −3.7 (−5.6, −1.8) %
- LVOT Gradient, Valsalva: placebo-corrected treatment difference (95% CI) [2, 4]: −50 (−57, −44) mmHg
- LVOT Gradient, rest: placebo-corrected treatment difference (95% CI) [2, 4]: −40 (−46, −34) mmHg
- Lateral E/e′: placebo-corrected treatment difference (95% CI) [2, 4]: −3.9 (−5.0, −2.8)
- Lateral e′ velocity: placebo-corrected treatment difference (95% CI) [2, 4]: 1.2 (0.7, 1.6) cm/s
- Septal E/e′: placebo-corrected treatment difference (95% CI) [2, 4]: −3.6 (−4.8, −2.5)
- Septal e′ velocity: placebo-corrected treatment difference (95% CI) [2, 4]: 0.5 (0.2, 0.8) cm/s
- Inferolateral wall: placebo-corrected treatment difference (95% CI) ([2]; Washout (Week 28)): −0.2 (−0.8, 0.3) mm
- Interventricular septal wall: placebo-corrected treatment difference (95% CI) ([2]; Washout (Week 28)): −0.3 (−1.0, 0.4) mm
- LA volume index: placebo-corrected treatment difference (95% CI) ([2]; Washout (Week 28)): −3.0 (−4.9, −1.0) ml/m2
- LA width: placebo-corrected treatment difference (95% CI) ([2]; Washout (Week 28)): −0.8 (−1.8, 0.3) mm
- LV Ejection Fraction: placebo-corrected treatment difference (95% CI) ([2]; Washout (Week 28)): −1 (−2, 1) %
- LV Fractional Shortening: placebo-corrected treatment difference (95% CI) ([2]; Washout (Week 28)): −1 (−3, 2) %
- LV end diastolic dimension: placebo-corrected treatment difference (95% CI) ([2]; Washout (Week 28)): −0.7 (−1.6, 0.2) mm
- LV end diastolic volume index: placebo-corrected treatment difference (95% CI) ([2]; Washout (Week 28)): −1.2 (−2.5, 0.1) ml/m2
- LV end systolic dimension: placebo-corrected treatment difference (95% CI) ([2]; Washout (Week 28)): −0.2 (−1.1, 0.8) mm
- LV end systolic volume index: placebo-corrected treatment difference (95% CI) ([2]; Washout (Week 28)): −0.1 (−0.7, 0.5) ml/m2
- LV global circumferential strain (absolute): placebo-corrected treatment difference (95% CI) ([2]; Washout (Week 28)): −0.8 (−2.5, 0.9) %
- LV global longitudinal strain (absolute): placebo-corrected treatment difference (95% CI) ([2]; Washout (Week 28)): −0.1 (−0.6, 0.5) %
- LV mass index: placebo-corrected treatment difference (95% CI) ([2]; Washout (Week 28)): −3.7 (−10.2, 2.8) g/m2
- LVOT Gradient, Valsalva: placebo-corrected treatment difference (95% CI) ([2]; Washout (Week 28)): −1 (−8, 6) mmHg
- LVOT Gradient, rest: placebo-corrected treatment difference (95% CI) ([2]; Washout (Week 28)): −1 (−6, 7) mmHg
- Lateral E/e′: placebo-corrected treatment difference (95% CI) ([2]; Washout (Week 28)): −0.2 (−1.6, 1.2)
- Lateral e′ velocity: placebo-corrected treatment difference (95% CI) ([2]; Washout (Week 28)): −0.2 (−0.6, 0.3) cm/s
- Peak A wave velocity: placebo-corrected treatment difference (95% CI) ([2]; Washout (Week 28)): 3.2 (−0.5, 6.9) cm/s
- Peak E wave velocity: placebo-corrected treatment difference (95% CI) ([2]; Washout (Week 28)): −1.6 (−5.8, 2.7) cm/s
- RV s′ velocity: placebo-corrected treatment difference (95% CI) ([2]; Washout (Week 28)): +0.3 (−0.2, 0.9) cm/s
- Septal E/e′: placebo-corrected treatment difference (95% CI) ([2]; Washout (Week 28)): −0.6 (−1.7, 0.6)
- Septal e′ velocity: placebo-corrected treatment difference (95% CI) ([2]; Washout (Week 28)): −0.0 (−0.3, 0.2) cm/s
- TAPSE: placebo-corrected treatment difference (95% CI) ([2]; Washout (Week 28)): +0.8 (−0.3, 1.9) mm
- rest LV outflow tract gradient on treatment ([2]; end of treatment period, from 55±27 at baseline): 20±17 mmHg
- Valsalva LV outflow tract gradient on treatment ([2]; end of treatment period, from 83±32 at baseline): 35±25 mmHg
- reduction of Valsalva LVOT gradient compared to baseline ([2]; week 2): 25%
- reduction of rest LVOT gradient compared to baseline ([2]; week 2): 31%
